Our source for the EC50 and IC50 values is patent US10307413B2, “Tetrahydro- and dihydro-isoquinoline PRMT5 inhibitors and uses thereof” (Epizyme, Inc., priority 2013, dated 2019).

Where two headings read alike, the source gives them in different places. A value given as a limit tells only on which side of the number the result lay.

The subject of assay [1] is symmetric di-methyl arginine in Z-138 cells. The experiment in a line: Z-138 Methylation Assay (In Cell Western for symmetric di-methyl arginine and DNA content). As to conditions: Homo sapiens, In Cell Western methylation, read-out: ICW EC50. The class given is cell-based. In short, it runs like this:
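In-cell western: symmetric di-methyl arginine signal ratioed to DRAQ5 DNA content after 96 h compound exposure of Z-138 cells seeded at 50,000 cells/mL.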

In a further assay the target is PRMT5/MEP50 (Homo sapiens (Human), UniProt O14744). The experiment in a line: PRMT5 Biochemical Assay (PRMT5/MEP50 enzyme assay on peptide substrate, 3H-SAM Flashplate). As to conditions: PRMT5 biochemical assay. In short, it runs like this: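 Radiometric methylation of a biotin-tagged H4(1-15) peptide by human PRMT5/MEP50 from baculovirus/Sf9, with ³H-SAM incorporation read on streptavidin Flashplates. Buffer: Bicine pH 7.6, TCEP, BSG, Tween20; compound preincubated 30 min at 25 °C; stopped with 600 µM final unlabeled SAM. DMSO and SAH controls; IC50 from fitted % inhibition.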

The test system of another assay is Z-138 cell line. The experiment in a line: Z-138 Proliferation Assay (Cell Titer Glo, 5 days). The note with it: Homo sapiens, read-out: Proliferation EC50. The class given is cell-based. The essentials: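 Viability via CellTiter-Glo luminescence (ATP) after 5-day incubation at 37 °C, 5% CO2. Compounds tested in triplicate, nine 3-fold steps, highest final concentration 20 μM in 0.2% DMSO; 50% inhibitory concentration by 4-parameter fit of normalized curves.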
For orientation: Cellular ATP, detected with luciferase, serves as a proxy for viable cell number.

Where [2] appears, read: 120 h, Z-138 cells, 5 days, Cell Titer Glo.

PRMT5/MEP50, sequence (O14744 other isoform, or with tags, fused parts or gaps): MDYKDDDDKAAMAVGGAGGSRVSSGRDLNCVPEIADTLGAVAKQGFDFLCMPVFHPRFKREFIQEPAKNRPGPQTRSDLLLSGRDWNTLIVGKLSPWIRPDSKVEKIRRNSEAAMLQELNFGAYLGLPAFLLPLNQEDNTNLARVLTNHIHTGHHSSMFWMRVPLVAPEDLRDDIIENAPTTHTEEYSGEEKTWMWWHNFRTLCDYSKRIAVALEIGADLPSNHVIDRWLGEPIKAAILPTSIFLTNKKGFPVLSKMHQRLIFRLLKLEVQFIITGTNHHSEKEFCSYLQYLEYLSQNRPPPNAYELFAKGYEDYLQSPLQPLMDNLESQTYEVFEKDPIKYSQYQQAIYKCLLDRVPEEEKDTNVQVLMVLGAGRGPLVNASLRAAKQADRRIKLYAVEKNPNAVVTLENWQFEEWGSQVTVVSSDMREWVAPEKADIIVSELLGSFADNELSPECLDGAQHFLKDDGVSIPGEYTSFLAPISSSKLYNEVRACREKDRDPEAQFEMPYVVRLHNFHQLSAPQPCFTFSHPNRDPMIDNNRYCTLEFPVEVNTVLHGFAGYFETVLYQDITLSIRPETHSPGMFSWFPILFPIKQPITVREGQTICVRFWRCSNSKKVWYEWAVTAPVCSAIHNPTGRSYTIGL
PRMT5/MEP50, sequence (Q9BQA1 other isoform, or with tags, fused parts or gaps partner): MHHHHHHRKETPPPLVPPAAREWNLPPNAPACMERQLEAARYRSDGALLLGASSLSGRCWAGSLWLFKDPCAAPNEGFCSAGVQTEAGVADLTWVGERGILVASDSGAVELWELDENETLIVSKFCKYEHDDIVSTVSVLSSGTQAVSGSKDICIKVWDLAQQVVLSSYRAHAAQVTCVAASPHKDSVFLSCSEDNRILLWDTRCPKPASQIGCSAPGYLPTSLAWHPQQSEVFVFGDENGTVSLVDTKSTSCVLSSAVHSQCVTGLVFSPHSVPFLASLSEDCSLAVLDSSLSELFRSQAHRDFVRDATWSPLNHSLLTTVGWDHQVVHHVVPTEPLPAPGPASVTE

On to `COCCN1CC(Nc2ccnc(C(=O)NC[C@H](O)CN3CCc4ccccc4C3)c2)C1` [Compound 576], for which the EC50 in assay [1] was less than 0.1 µM; in the assay on Z-138 cell line (setting [2]) it was 1 to 10 µM. The IC50 at PRMT5/MEP50 was less than 0.1 µM.

Consider `O=C(NC[C@H](O)CN1CCc2ccccc2C1)c1cc(NC2CN(C(=O)C3CCC3)C2)ccn1` [Compound 577], for which the EC50 (in assay [1]; in the assay on Z-138 cell line (setting [2])) was less than 0.1 µM in each case. The IC50 on PRMT5/MEP50 is less than 0.1 µM.

For `CC(C)(O)CN1CCC(Nc2cc(C(=O)NC[C@H](O)CN3CCc4ccccc4C3)ncn2)CC1` [Compound 579], the EC50 in assay [1] is less than 0.1 µM; with Z-138 cell line (setting [2]), 0.101 to 1 µM. Also, the IC50 on PRMT5/MEP50 was less than 0.1 µM.

For the compound `CS(=O)(=O)CCN1CC(Nc2cc(C(=O)NC[C@H](O)CN3CCc4ccccc4C3)ncn2)C1` [Compound 580], the EC50 in assay [1] was 0.101 to 1 µM; in the assay with Z-138 cell line (setting [2]), more than 5 µM. In addition, the IC50 on PRMT5/MEP50 is less than 0.1 µM.

As for `CCSCCN1CC(Nc2cc(C(=O)NC[C@H](O)CN3CCc4ccccc4C3)ncn2)C1` [Compound 581], the EC50 in assay [1] was 0.101 to 1 µM; in the assay with Z-138 cell line (Z-138, 120 h), more than 5 µM. For the same compound, the IC50 at PRMT5/MEP50 is less than 0.1 µM.

For the compound `CC(=O)N1CC[C@H](Nc2cc(C(=O)NC[C@H](O)CN3CCc4ccccc4C3)ncn2)C1` [Compound 582], the EC50 in assay [1] was less than 0.1 µM; in the assay on Z-138 cell line (setting [2]), 1 to 10 µM. In addition, the IC50 at PRMT5/MEP50 is less than 0.1 µM.

Regarding `CC(=O)N1CC(Nc2cc(C(=O)NC[C@H](O)CN3CCc4ccccc4C3C)ncn2)C1` (stereo partly drawn) [Compound 583], the EC50 in assay [1] is less than 0.1 µM; in the assay with Z-138 cell line (setting [2]) it was 1 to 10 µM. On PRMT5/MEP50, the IC50 is less than 0.1 µM.

With `CC(=O)N1CCC(Nc2cc(C(=O)NC[C@H](O)CN3CCc4ccccc4C3C)ncn2)CC1` (stereo partly drawn) [Compound 584], the EC50 in assay [1] is less than 0.1 µM; in the assay on Z-138 cell line (setting [2]), 1 to 10 µM. Also, the IC50 on PRMT5/MEP50 is less than 0.1 µM.

In the case of `O=C(NC[C@H](O)CN1CCc2ccccc2C1)c1cc(N[C@H]2CC[C@H](O)CC2)ncn1` [Compound 585], the results for the EC50 (in assay [1]; in the assay with Z-138 cell line (setting [2])) were less than 0.1 µM and 0.101 to 1 µM, respectively. For the same compound, the IC50 at PRMT5/MEP50 was less than 0.1 µM.

On to `CO[C@H]1CC[C@H](Nc2cc(C(=O)NC[C@H](O)CN3CCc4ccccc4C3)ncn2)CC1` [Compound 586], for which the EC50 (in assay [1]; in the assay with Z-138 cell line (setting [2])) was less than 0.1 µM in each case. The IC50 at PRMT5/MEP50 is less than 0.1 µM.

As for `CN(C)C(=O)[C@H]1CC[C@H](Nc2cc(C(=O)NC[C@H](O)CN3CCc4ccccc4C3)ncn2)CC1` [Compound 587], the EC50 (in assay [1]; with Z-138 cell line (setting [2])) was less than 0.1 µM throughout. The IC50 at PRMT5/MEP50 was less than 0.1 µM.

In the case of `CC1(C)c2ccccc2CCN1C[C@@H](O)CNC(=O)c1cc(NC2COC2)ncn1` [Compound 588], the EC50 in assay [1] was more than 1 µM; in the assay on Z-138 cell line (setting [2]), more than 5 µM. For the same compound, the IC50 at PRMT5/MEP50 was 1 to 10 µM.

Take `CN(C)[C@H]1CC[C@@H](Nc2cc(C(=O)NC[C@H](O)CN3CCc4ccccc4C3)ncn2)CC1` [Compound 589]: the EC50 in assay [1] is 0.101 to 1 µM; with Z-138 cell line (setting [2]), 1 to 10 µM. The IC50 on PRMT5/MEP50 was less than 0.1 µM.

Regarding `CC(=O)N[C@H]1CC[C@@H](Nc2cc(C(=O)NC[C@H](O)CN3CCc4ccccc4C3)ncn2)CC1` [Compound 590], the EC50 was less than 0.1 µM in assay [1] and 0.101 to 1 µM in the assay on Z-138 cell line (setting [2]). Moreover, the IC50 at PRMT5/MEP50 was less than 0.1 µM.

`N[C@H]1CC[C@@H](Nc2cc(C(=O)NC[C@H](O)CN3CCc4ccccc4C3)ncn2)CC1` [Compound 591]: the values for the EC50 (in assay [1]; in the assay on Z-138 cell line (setting [2])) were less than 0.1 µM and 1 to 10 µM, respectively. On PRMT5/MEP50, the IC50 was less than 0.1 µM.

For the compound `O=C(NC[C@H](O)CN1CCc2ccccc2C1)c1cc(N[C@H]2CC[C@@H](O)CC2)ncn1` [Compound 592], the EC50 in assay [1] is less than 0.1 µM; in the assay on Z-138 cell line (setting [2]), 0.101 to 1 µM. For the same compound, the IC50 at PRMT5/MEP50 is less than 0.1 µM.

Regarding `CN(C)[C@H]1CC[C@H](Nc2cc(C(=O)NC[C@H](O)CN3CCc4ccccc4C3)ncn2)CC1` [Compound 593], the EC50 in assay [1] is less than 0.1 µM; in the assay with Z-138 cell line (setting [2]) it was 0.101 to 1 µM. At PRMT5/MEP50, the IC50 was less than 0.1 µM.

Consider `CC(=O)N[C@H]1CC[C@H](Nc2cc(C(=O)NC[C@H](O)CN3CCc4ccccc4C3)ncn2)CC1` [Compound 594], for which the figures for the EC50 (in assay [1]; with Z-138 cell line (setting [2])) were less than 0.1 µM and 0.101 to 1 µM, respectively. For the same compound, the IC50 at PRMT5/MEP50 was less than 0.1 µM.

With `N[C@H]1CC[C@H](Nc2cc(C(=O)NC[C@H](O)CN3CCc4ccccc4C3)ncn2)CC1` [Compound 595], the figures for the EC50 (in assay [1]; in the assay on Z-138 cell line (setting [2])) were less than 0.1 µM and more than 5 µM, respectively. For the same compound, on PRMT5/MEP50, the IC50 was less than 0.1 µM.

On to `NC(=O)[C@H]1CC[C@@H](Nc2cc(C(=O)NC[C@H](O)CN3CCc4ccccc4C3)ncn2)CC1` [Compound 596], for which the results for the EC50 (in assay [1]; in the assay on Z-138 cell line (setting [2])) were less than 0.1 µM and 1 to 10 µM, respectively. Besides, the IC50 at PRMT5/MEP50 was less than 0.1 µM.

On to `CNC(=O)[C@H]1CC[C@@H](Nc2cc(C(=O)NC[C@H](O)CN3CCc4ccccc4C3)ncn2)CC1` [Compound 597], for which the results for the EC50 (in assay [1]; in the assay on Z-138 cell line (setting [2])) were less than 0.1 µM and 0.101 to 1 µM, respectively. Moreover, the IC50 at PRMT5/MEP50 was less than 0.1 µM.

Consider `CN(C)C(=O)[C@H]1CC[C@@H](Nc2cc(C(=O)NC[C@H](O)CN3CCc4ccccc4C3)ncn2)CC1` [Compound 598], for which the EC50 was less than 0.1 µM in assay [1] and 1 to 10 µM with Z-138 cell line (setting [2]). For the same compound, the IC50 at PRMT5/MEP50 was less than 0.1 µM.

For `O=C(NC[C@H](O)CN1CCc2ccccc2C1)c1cc(N[C@H]2CC[C@@H](C(=O)N3CCOCC3)CC2)ncn1` [Compound 599], the EC50 in assay [1] was less than 0.1 µM; in the assay with Z-138 cell line (setting [2]), 1 to 10 µM. On PRMT5/MEP50, the IC50 is less than 0.1 µM.

Turning to `CC(=O)[C@H]1CC[C@H](Nc2cc(C(=O)NC[C@H](O)CN3CCc4ccccc4C3)ncn2)CC1` [Compound 600], the EC50 was less than 0.1 µM in assay [1] and 1 to 10 µM in the assay on Z-138 cell line (setting [2]). Further, the IC50 on PRMT5/MEP50 is less than 0.1 µM.

For `NC(=O)[C@H]1CC[C@H](Nc2cc(C(=O)NC[C@H](O)CN3CCc4ccccc4C3)ncn2)CC1` [Compound 601], the EC50 in assay [1] is less than 0.1 µM; in the assay on Z-138 cell line (setting [2]), 0.101 to 1 µM. In addition, at PRMT5/MEP50, the IC50 is less than 0.1 µM.

In the case of `CNC(=O)[C@H]1CC[C@H](Nc2cc(C(=O)NC[C@H](O)CN3CCc4ccccc4C3)ncn2)CC1` [Compound 602], the EC50 is less than 0.1 µM in assay [1] and 0.101 to 1 µM in the assay on Z-138 cell line (setting [2]). In addition, on PRMT5/MEP50, the IC50 is less than 0.1 µM.

With `CC(C)(O)CNCC1CN2C=NC(C(=O)NC[C@H](O)CN3CCc4ccccc4C3)=CC2=N1` (stereo partly drawn) [Compound 603], the EC50 in assay [1] is more than 1 µM; with Z-138 cell line (setting [2]), 1 to 10 µM. Besides, at PRMT5/MEP50, the IC50 fell in the range of 0.101 to 1 µM.

As to `Cc1c(NC2COC2)ncnc1C(=O)NC[C@H](O)CN1CCc2ccccc2C1` [Compound 604], the EC50 in assay [1] was 0.101 to 1 µM; in the assay on Z-138 cell line (setting [2]), 1 to 10 µM. Also, on PRMT5/MEP50, the IC50 was less than 0.1 µM.

In the case of `CC(=O)N1CC(Nc2cc(C(=O)NC[C@H](O)CN3CCc4ccccc4C3(C)C)ncn2)C1` [Compound 605], the values for the EC50 (in assay [1]; in the assay on Z-138 cell line (setting [2])) were 0.101 to 1 µM and more than 5 µM, respectively. Also, the IC50 at PRMT5/MEP50 is 0.101 to 1 µM.

As to `CC(=O)N1CCC(Nc2cc(C(=O)NC[C@H](O)CN3CCc4ccccc4C3(C)C)ncn2)CC1` [Compound 606], the EC50 was 0.101 to 1 µM in assay [1] and more than 5 µM in the assay with Z-138 cell line (setting [2]). Further, on PRMT5/MEP50, the IC50 lay within 0.101 to 1 µM.

Regarding `CC(C(O)CNC(=O)c1cc(NC2COC2)ncn1)N1CCc2ccccc2C1` (stereo not drawn) [Compound 607], the figures for the EC50 (in assay [1]; with Z-138 cell line (setting [2])) were more than 1 µM and more than 5 µM, respectively. In addition, on PRMT5/MEP50, the IC50 lay within 1 to 10 µM.

Turning to `CC(=O)N1CC(Nc2cc(C(=O)NCC(O)C(C)N3CCc4ccccc4C3)ncn2)C1` (stereo not drawn) [Compound 608], the EC50 in assay [1] was more than 1 µM; with Z-138 cell line (setting [2]) it was more than 5 µM. The 50% inhibitory concentration (IC50) at PRMT5/MEP50 fell in the range of 0.101 to 1 µM.

By IC50 is commonly meant the concentration at which inhibition is half-maximal.
